Where two headings read alike, the source gives them in different places.
What was measured:
[1] = Log P by HPLC on reversed phase columns, method [a] (EEC directive 79/831 Annex V.A8); assay type: physicochemical; settings: reversed phase HPLC column, read-out: logP
Method in brief: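 Log P calibrated with C3–C16 straight-chain alkan-2-ones of known Log P, interpolating linearly between retention times. Method per EEC 79/831 Annex V.A8: reversed-phase LC-UV in the acidic range, water/0.1% formic acid and acetonitrile gradient from 10% to 95% acetonitrile.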

[2] = tested on: Puccinia recondita; assay: Example D: in vivo preventive test (brown rust on wheat); settings: 264 h, 500 ppm of tested compound, preventive spray, evaluated 11 days after inoculation, read-out: efficacy
Procedure: Solvent: 5% by volume of dimethyl sulfoxide • 10% by volume of acetone Emulsifier: 1 μL of Tween® 80 per mg of active ingredient The tested compounds were made soluble and homogenized in a mixture of dimethyl sulfoxide/acetone/Tween® 80 and then diluted in water to the desired concentration. The young plants of wheat were treated by spraying the tested compound prepared as described above. Control plants were treated only with an aqueous solution of acetone/dimethyl sulfoxide/Tween® 80. After 24 hours, the plants were contaminated by spraying the leaves with an aqueous suspension of Puccinia recondita spores. The contaminated wheat plants were incubated for 24 hours at 20° C. and at 100% relative humidity and then for 10 days at 20° C. and at 70-80% relative humidity. The test was evaluated 11 days after the inoculation. 0% means an efficacy which corresponds to that of the control plants while an efficacy of 100% means that no disease was observed.

[3] = tested on: Alternaria brassicae; assay: Example E: in vivo preventive test (cabbage); settings: 144 h, 500 ppm of tested compound, preventive spray, evaluated 6 days after inoculation, read-out: efficacy
Procedure: Solvent: 5% by volume of dimethyl sulfoxide • 10% by volume of acetone Emulsifier: 1 μL of Tween® 80 per mg of active ingredient The tested compounds were made soluble and homogenized in a mixture of Dimethyl sulfoxide/Acetone/Tween® 80 and then diluted in water to the desired concentration. The young plants of cabbage were treated by spraying the tested compound prepared as described above. Control plants were treated only with an aqueous solution of Acetone/Dimethyl sulfoxide/Tween® 80. After 24 hours, the plants were contaminated by spraying the leaves with an aqueous suspension of Alternaria brassicae spores. The contaminated cabbage plants were incubated for 6 days at 20° C. and at 100% relative humidity. The test was evaluated 6 days after the inoculation. 0% means an efficacy which corresponds to that of the control plants while an efficacy of 100% means that no disease was observed.

[4] = tested on: Phakopsora pachyrhizi; assay: Example F: in vivo preventive test (soybeans), DMSO/acetone/Tween 80; settings: 288 h, 500 ppm of tested compound, preventive spray, soybean, evaluated 12 days after inoculation, read-out: efficacy
Procedure: Solvent: 5% by volume of dimethyl sulfoxide • 10% by volume of acetone
Emulsifier: 1 μL of Tween® 80 per mg of active ingredient
The tested compounds were made soluble and homogenized in a mixture of dimethyl sulfoxide/acetone/Tween® 80 and then diluted in water to the desired concentration.
The young plants of wheat were treated by spraying the tested compound prepared as described above. Control plants were treated only with an aqueous solution of acetone/dimethyl sulfoxide/Tween® 80.
After 24 hours, the plants were contaminated by spraying the leaves with an aqueous suspension of Phakospora pachyrhizi spores. The contaminated soybean plants were incubated for 24 hours at 24° C. and at 100% relative humidity and then for 11 days at 24° C. and at 70-80% relative humidity.
The test was evaluated 12 days after the inoculation. 0% means an efficacy which corresponds to that of the control plants while an efficacy of 100% means that no disease was observed.

[5] = tested on: Colletotrichum lindemuthianum; assay: Example B: in vitro cell test, spore germination and mycelium growth in liquid culture; assay type: cell-based; settings: 144 h, 20 ppm of tested compound, 6 days incubation, read-out: efficacy (inhibition of fungal growth)
Procedure: • Solvent: dimethyl sulfoxide Culture medium: 14.6 g anhydrous D-glucose (VWR), • 7.1 g mycological peptone (Oxoid), • 1.4 g granulated yeast extract (Merck), QSP 1 liter Inoculum: spore suspension The tested compounds were solubilized in dimethyl sulfoxide and the solution used to prepare the required range of concentrations. The final concentration of dimethyl sulfoxide used in the assay was ≤1%. A spore suspension of Colletotrichum lindemuthianum was prepared and diluted to the desired spore density. The compounds were evaluated for their ability to inhibit spore germination and mycelium growth in liquid culture assay. The compounds were added in the desired concentration to the culture medium with spores. After 6 days incubation, fungi-toxicity of compounds was determined by spectrometric measurement of mycelium growth. Inhibition of fungal growth was determined by comparing the absorbance values in wells containing the tested compounds with the absorbance in control wells without tested compounds.

[6] = log P determined according to method [a] (HPLC on reversed phase columns)
[7] = method [a], HPLC on reversed phase columns

chromatographic logP [1, 6] | chromatographic logP [1, 7] | Compound | pest or weed control at 500 µg/mL [2] [%] | pest or weed control at 500 µg/mL [3] [%] | pest or weed control at 500 µg/mL [4] [%] | inhibition of growth at 20 µg/mL [5] [%]
2.62 |  | COc1cccc(C2(Nc3ncc(-c4nnc(C(F)F)o4)cn3)CC2)c1 [I.156, 5-[5-(difluoromethyl)-1,3,4-oxadiazol-2-yl]-N-[1-(3-methoxyphenyl)cyclopropyl]pyrimidin-2-amine] | 90 to 100 | 90 to 100 | 90 to 100 | 
2.95 |  | FC(F)c1nnc(-c2cnc(OC3(c4ccccc4)CC3)nc2)o1 [I.120, 5-[5-(difluoromethyl)-1,3,4-oxadiazol-2-yl]-2-[(1-phenylcyclopropyl)oxy]pyrimidine] | 70 to 79 |  | 90 to 100 | 70 to 79
3.37 |  | FC(F)c1nnc(-c2cnc(Nc3ccccc3-c3ccccc3)nc2)o1 [I.166, N-([biphenyl]-2-yl)-5-[5-(difluoromethyl)-1,3,4-oxadiazol-2-yl]pyrimidin-2-amine] | 90 to 100 | 70 to 79 | 90 to 100 | 80 to 89
3.14 |  | FC(F)c1nnc(-c2cnc(NC(c3ccccc3)C3CC3)nc2)o1 (racemic) [I.136, N—[(RS)-cyclopropyl(phenyl)methyl]-5-[5-(difluoromethyl)-1,3,4-oxadiazol-2-yl]pyrimidin-2-amine] | 80 to 89 |  | 90 to 100 | 80 to 89
2.89 |  | CC(Nc1ncc(-c2nnc(C(F)F)o2)cn1)c1ccc(F)cc1 (racemic) [I.125, 5-[5-(difluoromethyl)-1,3,4-oxadiazol-2-yl]-N-[(1RS)-1-(4-fluorophenyl)ethyl]pyrimidin-2-amine] | 90 to 100 |  | 90 to 100 | 80 to 89
3.16 |  | CCC(Nc1ncc(-c2nnc(C(F)F)o2)cn1)c1ccccc1 (racemic) [I.122, 5-[5-(difluoromethyl)-1,3,4-oxadiazol-2-yl]-N-[(1RS)-1-phenylpropyl]pyrimidin-2-amine] | 90 to 100 |  | 90 to 100 | 90 to 100
2.72 |  | Fc1cccc(C2(Nc3ncc(-c4nnc(C(F)F)o4)cn3)CC2)c1 [I.145, 5-[5-(difluoromethyl)-1,3,4-oxadiazol-2-yl]-N-[1-(3-fluorophenyl)cyclopropyl]pyrimidin-2-amine] | 90 to 100 |  | 90 to 100 | 80 to 89
3 |  | Cc1ccc(C2(Nc3ncc(-c4nnc(C(F)F)o4)cn3)CC2)cc1 [I.133, 5-[5-(difluoromethyl)-1,3,4-oxadiazol-2-yl]-N-[1-(4-methylphenyl)cyclopropyl]pyrimidin-2-amine] | 90 to 100 | 70 to 79 | 90 to 100 | 
1.2 |  | FC(F)c1nnc(-c2cnc(NC3(c4ccccn4)CCC3)nc2)o1 [I.137, 5-[5-(difluoromethyl)-1,3,4-oxadiazol-2-yl]-N-[1-(pyridin-2-yl)cyclobutyl]pyrimidin-2-amine] | 90 to 100 | 90 to 100 | 90 to 100 | 
 |  | Fc1ccccc1Nc1ncc(-c2nnc(C(F)F)o2)cn1 [I.093, 5-[5-(difluoromethyl)-1,3,4-oxadiazol-2-yl]-N-(2-fluorophenyl)pyrimidin-2-amine] | 90 to 100 |  | 90 to 100 | 
3.13 |  | CC(Oc1ncc(-c2nnc(C(F)F)o2)cn1)c1ccc(F)cc1 (racemic) [I.127, 5-[5-(difluoromethyl)-1,3,4-oxadiazol-2-yl]-2-{[(1RS)-1-(4-fluorophenyl)ethyl]oxy}pyrimidine] | 70 to 79 |  | 90 to 100 | 
2.23 |  | CN(Nc1ncc(-c2nnc(C(F)F)o2)cn1)c1ccccc1 [I.108, 5-[5-(difluoromethyl)-1,3,4-oxadiazol-2-yl]-2-(2-methyl-2-phenylhydrazino)pyrimidine] | 70 to 79 |  |  | 
 | 3.5 | Fc1cccc(F)c1C1(Nc2ncc(-c3nnc(C(F)F)o3)cn2)CCC1 [I.177, 5-[5-(difluoromethyl)-1,3,4-oxadiazol-2-yl]-N-[1-(2,6-difluorophenyl)cyclobutyl]pyrimidin-2-amine] | 90 to 100 | 80 to 89 | 90 to 100 | 90 to 100
 | 2.51 | COC(=O)c1ccc(C2(Nc3ncc(-c4nnc(C(F)F)o4)cn3)CC2)cc1 [I.180, methyl 4-[1-({5-[5-(difluoromethyl)-1,3,4-oxadiazol-2-yl]pyrimidin-2-yl}amino)cyclopropyl]benzoate] | 70 to 79 |  |  | 
3.06 |  | COc1ccccc1C1(Nc2ncc(-c3nnc(C(F)F)o3)cn2)CC1 [I.155, 5-[5-(difluoromethyl)-1,3,4-oxadiazol-2-yl]-N-[1-(2-methoxyphenyl)cyclopropyl]pyrimidin-2-amine] | 80 to 89 |  | 90 to 100 | 
 | 3.67 | FC(F)c1nnc(-c2cnc(NC3(c4cccc(Cl)c4)CCC3)nc2)o1 [I.175, N-[1-(3-chlorophenyl)cyclobutyl]-5-[5-(difluoromethyl)-1,3,4-oxadiazol-2-yl]pyrimidin-2-amine] | 90 to 100 | 70 to 79 |  | 80 to 89
2.86 |  | C#CC(Nc1ncc(-c2nnc(C(F)F)o2)cn1)c1ccccc1 (racemic) [I.118, 5-[5-(difluoromethyl)-1,3,4-oxadiazol-2-yl]-N-[(1RS)-1-phenylprop-2-yn-1-yl]pyrimidin-2-amine] | 80 to 89 |  | 90 to 100 | 90 to 100
3.47 |  | Fc1ccccc1C1(Nc2ncc(-c3nnc(C(F)(F)F)o3)cn2)CC1 [I.165, N-[1-(2-fluorophenyl)cyclopropyl]-5-[5-(trifluoromethyl)-1,3,4-oxadiazol-2-yl]pyrimidin-2-amine] | 90 to 100 |  | 90 to 100 | 80 to 89
3.23 |  | Cc1ccccc1C1(Nc2ncc(-c3nnc(C(F)F)o3)cn2)CC1 [I.132, 5-[5-(difluoromethyl)-1,3,4-oxadiazol-2-yl]-N-[1-(2-methylphenyl)cyclopropyl]pyrimidin-2-amine] | 80 to 89 |  | 90 to 100 | 70 to 79
 |  | CN(C(=O)c1ccc(-c2nnc(C(F)(F)F)o2)cc1)c1ccccc1 [I.026, N-methyl-N-phenyl-4-[5-(trifluoromethyl)-1,3,4-oxadiazol-2-yl]benzamide] | 80 to 89 |  |  | 
0.93 |  | FC(F)c1nnc(-c2cnc(NC3(c4ccccn4)CC3)nc2)o1 [I.121, 5-[5-(difluoromethyl)-1,3,4-oxadiazol-2-yl]-N-[1-(pyridin-2-yl)cyclopropyl]pyrimidin-2-amine] | 70 to 79 |  | 90 to 100 | 

Reference: patent US20220144815A1, “1,3,4-OXADIAZOLES AND THEIR DERIVATIVES AS NEW ANTIFUNGAL AGENTS” (Bayer Aktiengesellschaft, priority 2018, published 2022)
